Source: ChEMBL document CHEMBL5244213, “Current advances in drug discovery for Chagas disease” (Eur J Med Chem, 2018)
Values belong to the molecule of their own block, whether it stands above or below them.

Tests used:
Trypanosoma cruzi [1] = assay: Antitrypanosomal activity against Trypanosoma cruzi Y […] transfected in monkey LLC-MK2 cells assessed as inhibition of […] viability measured after 24 hrs by Neubauer chamber based analysis; format: functional, organism-based; settings: LLC-MK2, 24 h
Trypanosoma cruzi [2] = assay: Antitrypanosomal activity against Trypanosoma cruzi Y intracellular amastigote transfected in monkey LLC-MK2 cells assessed as inhibition of intracellular amastigote viability measured after 24 hrs by Neubauer chamber based analysis; format: functional, organism-based; settings: LLC-MK2, 24 h
[3] = Selectivity index, ratio of IC50 for cytotoxicity against monkey LLC-MK2 cells to IC50 for antitrypanosomal activity against Trypanosoma cruzi Y […] transfected in monkey LLC-MK2 cells; format: toxicity, cell-based; settings: read-out: Ratio IC50
[4] = Selectivity index, ratio of IC50 for cytotoxicity against monkey LLC-MK2 cells to IC50 for antitrypanosomal activity against Trypanosoma cruzi Y intracellular amastigote transfected in monkey LLC-MK2 cells; format: toxicity, cell-based; settings: read-out: Ratio IC50
Trypanosoma cruzi [5] = assay: Antitrypanosomal activity against Trypanosoma cruzi Y […] transfected in African green monkey Vero cells assessed as inhibition of […] viability measured after 48 hrs by DAPI staining based fluorescence microscopic assay; format: functional, organism-based
[6] = Selectivity index, ratio of IC50 for cytotoxicity against African green monkey Vero cells to IC50 for antitrypanosomal activity against Trypanosoma cruzi X-10 intracellular amastigotes transfected in African green monkey Vero cells; format: toxicity, cell-based; settings: read-out: Ratio IC50
Trypanosoma cruzi [7] = assay: Antitrypanosomal activity against Trypanosoma cruzi Sylvio X-10 intracellular amastigotes transfected in African green monkey Vero cells assessed as inhibition of intracellular amastigotes viability measured after 72 hrs by giemsa-staining based analysis; format: functional, organism-based; settings: Sylvio X-10, Vero
[8] = Selectivity index, ratio of IC50 for cytotoxicity against mouse J774.1 cells to IC50 for antitrypanosomal activity against Trypanosoma cruzi Tulahuen 2 […]; format: toxicity, cell-based; settings: read-out: Ratio IC50
Trypanosoma cruzi [9] = assay: Antitrypanosomal activity against Trypanosoma cruzi Tulahuen 2 intracellular epimastigotes assessed as viability of […] measured after 5 days by absorbance based analysis; format: functional, organism-based; settings: Tulahuen 2, 120 h
Trypanosoma cruzi [10] = assay: Antitrypanosomal activity against Trypanosoma cruzi […] assessed as inhibition of […] viability; format: functional, organism-based
Trypanosoma cruzi [11] = assay: Antitrypanosomal activity against Trypanosoma cruzi Y intracellular amastigotes assessed as inhibition of intracellular amastigotes viability at 10 uM measured after 72 hrs relative to control; format: functional
[12] = Selectivity index, ratio of IC50 for cytotoxicity against African green monkey Vero cells to IC50 for antitrypanosomal activity against Trypanosoma cruzi Dm28c […] transfected in African green monkey Vero cells; format: toxicity, cell-based; settings: read-out: Ratio IC50
Trypanosoma cruzi [13] = assay: Antitrypanosomal activity against Trypanosoma cruzi Dm28c intracellular amastigotes transfected in African green monkey Vero cells assessed as inhibition of intracellular amastigotes viability measured after 24 hrs by MTT assay; format: functional, organism-based
Trypanosoma cruzi [14] = assay: Antitrypanosomal activity against Trypanosoma cruzi Dm28c […] transfected in African green monkey Vero cells assessed as inhibition of […] viability measured after 24 hrs by MTT assay; format: functional, organism-based
[15] = Selectivity index, ratio of IC50 for cytotoxicity against African green monkey Vero cells to IC50 for antitrypanosomal activity against Trypanosoma cruzi Dm28c intracellular amastigotes transfected in African green monkey Vero cells; format: toxicity, cell-based; settings: read-out: Ratio IC50
Trypanosoma cruzi [16] = assay: Antitrypanosomal activity against Trypanosoma cruzi Tulahuen CL2 intracellular amastigotes transfected in human MRC5 cells assessed as inhibition of intracellular amastigotes viability using […] substrate measured after 7 days by chlorophenol red […] staining based analysis; format: functional, organism-based; settings: Tulahuen CL2, MRC5, 168 h

Structure (SMILES): N/C(S)=N/N=C/c1ccc([N+](=O)[O-])cc1
IC50 (Trypanosoma cruzi [1]): 1430 nM
IC50 (Trypanosoma cruzi [2]): 11800 nM
selectivity ratio [3]: 26.2
selectivity ratio [4]: 11.6

Structure (SMILES): C=CCn1c(C(=O)N2CCN(C/C=C/c3ccccc3)CC2)cs\c1=N/N=C/C=C/c1ccco1
selectivity ratio [6]: 433
IC50 (Trypanosoma cruzi [7]): 700 nM

Structure (SMILES): COc1cccc(Nc2c(C#N)cnc3ccc(Cl)cc23)c1
IC50 (Trypanosoma cruzi [10]): < 1000 nM
inhibition at 10 µM (Trypanosoma cruzi [11]): 65%

Structure (SMILES): CC1(C(CC(=O)/C=C/c2ccccc2)c2ccccc2)N=C(c2ccccc2)OC1=O (configuration not stated)
selectivity ratio [12]: 6.74
IC50 (Trypanosoma cruzi [13]): 2340 nM
IC50 (Trypanosoma cruzi [14]): 33000 nM
selectivity ratio [15]: 95

Structure (SMILES): CCOc1cccc2sc(N(Cc3cccnc3)C(=O)C3CCCCC3)nc12
IC50 (Trypanosoma cruzi [16]): 160 nM

Further lines, with some results ahead:

EC50 (Trypanosoma cruzi [5]): 1000 nM
Structure (SMILES): O=C(OCCCCCCCCCCCC[P+](c1ccccc1)(c1ccccc1)c1ccccc1)c1cc(O)c(O)c(O)c1

EC50 (Trypanosoma cruzi [5]): 1000 nM
Structure (SMILES): O=C(OCCCCCCCCCC[P+](c1ccccc1)(c1ccccc1)c1ccccc1)c1cc(O)c(O)c(O)c1

IC50 (Trypanosoma cruzi [9]): 4900 nM
Structure (SMILES): O=C(CS/C(C(=O)c1ccc2ccccc2c1)=C1\C=C(c2ccc(O)cc2)SS1)c1ccc2ccccc2c1
selectivity ratio [8]: 12.8
